Tests used:
Assay type in all cases: cell-based
[1] = system: Acinetobacter baumannii isolates; assay: Antimicrobial susceptibility test, disc diffusion method (CLSI M100-S24); set-up: key to Inhibition zone: “NZ” indicated that no zone of inhibition was observed; conditions: disc diffusion
Summary of the method: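 Disc diffusion per CLSI M100-S24 on 33 MDR clinical A. baumannii isolates from burn wards; 0.5 McFarland inoculum swabbed onto Mueller-Hinton agar, incubated aerobically 35-37° C, 18-20 h. Zone diameters measured to nearest mm and categorized S/I/R by CLSI breakpoints.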

[2] = system: Acinetobacter baumannii isolates and Acinetobacter baumannii ATCC BAA 747; assay: MIC determination by broth dilution method (CLSI M07-A9)
Method: (§1) Minimum Inhibitory Concentration (MIC) is the lowest concentration of an antimicrobial agent that prevents visible growth of a microorganism in an agar or broth dilution susceptibility test. MIC of thymoquinone was determined by the broth dilution method against 33 MDR Acinetobacter baumannii strains and standard sensitive culture collection strain of Acinetobacter baumannii and Pseudomonas aeruginosa. The MIC of gentamicin was deter lined by broth dilution method against six MDR Acinetobacter baumannii strains and standard sensitive culture collection strains of Acinetobacter baumannii and Pseudomonas aeruginosa. MIC testing was performed according to the recommendations and guidelines of Clinical Laboratory Standard Institutes (CLSI M07-A9; 2012). Clinical and Laboratory Standards Institute (CLSI), “Methods for Dilution Antimicrobial Susceptibility Tests for Bacteria That Grow Aerobically; Approved Standard,” Document M07-A9, Clinical and Laboratory Standards Institute (CLSI), Wayne, Pa., USA, 2012.
(§2) Twenty-one grams of Mueller-Hinton Broth (MHB) was suspended in 1 Liter distilled water and then boiled to dissolve the powder completely. The medium was sterilized by autoclaving at 121° C. for 15 min. After autoclaving, the medium was cooled to room temperature before use or stored in the fridge until used.
(§3) Thymoquinone was weighed and dissolved in Dimethyl sulfoxide (DMSO) to produce a thymoquinone stock solution with a concentration of 5,120 μg/ml. Gentamicin sulfate was weighed and dissolved in water to produce a gentamicin sulfate stock solution with a concentration of 5,120 μg/ml, equivalent to gentamicin base.
(§4) Dilutions of thymoquinone and gentamicin sulfate stock solutions were prepared volumetrically in the MHB as follows:
(§5) One mL of original stock solution (5,120 μg/ml) was added to 9 ml sterile MHB to give the working first dilution (512 μg/mL). 12 sterile 7 mL PJ tubes were arranged in a rack in a row. Each tube contained one mL sterile MHB. Ten tubes were labeled as 128 μg/mL, 64 μg/mL, 32 μg/mL, 16 μg/mL, 8 μg/mL, 4 μg/mL, 2 μg/mL, 1 μg/mL, 0.5 μg/mL and 0.25 μg/mL. The eleventh and twelfth tubes were labeled as positive and negative control, respectively.
(§6) The working dilution (512 μg/mL) was serially diluted to give two-fold dilutions. One mL of the working dilution (512 μg/mL) was dispensed in the first tube (labeled as 128 μg/mL) to give a concentration of 256 μg drug/mL MHB. One mL of the first tube was added to the second tube (labeled as 64 μg/mL) to give a concentration of 128 μg drug/mL MHB. One mL of the second tube was transferred to the third tube (labeled as 32 μg/mL) to give a concentration of 64 μg drug/mL MHB. One mL of the third tube was added to the fourth tube (labeled as 16 μg/mL) to give a concentration of 32 μg drug/mL MHB. One mL of the fourth tube was dispensed in the fifth tube (labeled as 8 μg/mL) to give a concentration of 16 μg drug/mL MHB. One mL of the fifth tube was dispensed in the sixth tube (labeled as 4 μg/mL) to give a concentration of 8 μg drug/mL MHB. One mL of the sixth tube was added to the seventh tube (labeled as 2 μg/mL) to give a concentration of 4 μg drug/mL MHB. One mL of the seventh tube was added to the eighth tube (labeled as 1 μg/mL) to give a concentration of 2 μg drug/mL MHB. One mL of the eighth tube was transferred to the ninth tube (labeled as 0.5 μg/mL) to give a concentration of 1 μg drug/mL MHB. One mL of the ninth tube was transferred to the tenth tube (labeled as 0.25 μg/mL) to give a concentration of 0.5 μg drug/mL MHB. The contents were mixed thoroughly by pipetting up and down three times. One mL of the content of the tenth tube was discarded.
(§7) The inoculum suspensions (at 1-2×10^8 CFU/mL) were diluted 1:100 in MHB to obtain 1×10^6 CFU/mL. One mL of the diluted inoculum suspension (1×10^6 CFU/mL) was transferred to each tube except tube 12.
(§8) All inoculated tubes were incubated for 16-20 hours at 37° C. aerobically. […]

[3] = system: Pseudomonas aeruginosa ATCC 27853; assay: as above; conditions: P. aeruginosa ATCC 27853
Method: as §1, §2, §3, §4, §5, §6, §7, §8

NC[C@@H]1O[C@H](O[C@H]2[C@@H](O)[C@H](O[C@@H]3[C@@H](O)[C@H](N)C[C@H](N)[C@H]3O[C@H]3O[C@H](CN)[C@@H](O)[C@H](O)[C@H]3N)O[C@@H]2CO)[C@H](N)[C@@H](O)[C@@H]1O [NEO, Neomycin]
Inhibition zone ([1]; isolate AB1): 23 mm | Inhibition zone ([1]; isolate AB2): 20 mm | Inhibition zone ([1]; isolate AB3): 22 mm | Inhibition zone ([1]; isolate AB4): 27 mm | Inhibition zone ([1]; isolate AB5): 10 mm | Inhibition zone ([1]; isolate AB6): 14 mm | Inhibition zone ([1]; isolate AB7): 12 mm | Inhibition zone ([1]; isolate AB8): 11 mm | Inhibition zone ([1]; isolate AB9): 20 mm | Inhibition zone ([1]; isolate AB10): NZ | Inhibition zone ([1]; isolate AB11): NZ | Inhibition zone ([1]; isolate AB12): 15 mm | Inhibition zone ([1]; isolate AB13): 9 mm | Inhibition zone ([1]; isolate AB14): NZ | Inhibition zone ([1]; isolate AB15): 13 mm | Inhibition zone ([1]; isolate AB16): NZ | Inhibition zone ([1]; isolate AB17): 20 mm | Inhibition zone ([1]; isolate AB18): 15 mm | Inhibition zone ([1]; isolate AB19): 13 mm | Inhibition zone ([1]; isolate AB20): NZ | Inhibition zone ([1]; isolate AB21): 13 mm | Inhibition zone ([1]; isolate AB22): 7 mm | Inhibition zone ([1]; isolate AB23): 10 mm | Inhibition zone ([1]; isolate AB24): 14 mm | Inhibition zone ([1]; isolate AB25): 8 mm | Inhibition zone ([1]; isolate AB26): 20 mm | Inhibition zone ([1]; isolate AB27): 9 mm | Inhibition zone ([1]; isolate AB28): 15 mm | Inhibition zone ([1]; isolate AB29): 15 mm | Inhibition zone ([1]; isolate AB30): 15 mm | Inhibition zone ([1]; isolate AB31): 8 mm | Inhibition zone ([1]; isolate AB32): 10 mm | Inhibition zone ([1]; isolate AB33): 20 mm

CCN1CCN(C(=O)N[C@@H](C(=O)N[C@@H]2C(=O)N3[C@@H]2SC(C)(C)[C@@H]3C(=O)O)c2ccccc2)C(=O)C1=O [PIP, Piperacillin]
Inhibition zone ([1]; isolate AB1): 21 mm | Inhibition zone ([1]; isolate AB2): 20 mm | Inhibition zone ([1]; isolate AB3): 32 mm | Inhibition zone ([1]; isolate AB4): 21 mm | Inhibition zone ([1]; isolate AB5): NZ | Inhibition zone ([1]; isolate AB6): 18 mm | Inhibition zone ([1]; isolate AB7): NZ | Inhibition zone ([1]; isolate AB8): NZ | Inhibition zone ([1]; isolate AB9): 24 mm | Inhibition zone ([1]; isolate AB10): NZ | Inhibition zone ([1]; isolate AB11): NZ | Inhibition zone ([1]; isolate AB12): NZ | Inhibition zone ([1]; isolate AB13): NZ | Inhibition zone ([1]; isolate AB14): NZ | Inhibition zone ([1]; isolate AB15): NZ | Inhibition zone ([1]; isolate AB16): 16 mm | Inhibition zone ([1]; isolate AB17): 15 mm | Inhibition zone ([1]; isolate AB18): 8 mm | Inhibition zone ([1]; isolate AB19): NZ | Inhibition zone ([1]; isolate AB20): NZ | Inhibition zone ([1]; isolate AB21): NZ | Inhibition zone ([1]; isolate AB22): NZ | Inhibition zone ([1]; isolate AB23): NZ | Inhibition zone ([1]; isolate AB24): NZ | Inhibition zone ([1]; isolate AB25): 10 mm | Inhibition zone ([1]; isolate AB26): NZ | Inhibition zone ([1]; isolate AB27): 8 mm | Inhibition zone ([1]; isolate AB28): 7 mm | Inhibition zone ([1]; isolate AB29): NZ | Inhibition zone ([1]; isolate AB30): 8 mm | Inhibition zone ([1]; isolate AB31): 8 mm | Inhibition zone ([1]; isolate AB32): 8 mm | Inhibition zone ([1]; isolate AB33): 22 mm

CN(C)[C@@H]1C(O)=C(C(N)=O)C(=O)[C@@]2(O)C(O)=C3C(=O)c4c(O)cccc4[C@@](C)(O)[C@H]3C[C@@H]12 [TET, Tetracycline]
Inhibition zone ([1]; isolate AB1): NZ | Inhibition zone ([1]; isolate AB2): 22 mm | Inhibition zone ([1]; isolate AB3): 22 mm | Inhibition zone ([1]; isolate AB4): 21 mm | Inhibition zone ([1]; isolate AB5): NZ | Inhibition zone ([1]; isolate AB6): NZ | Inhibition zone ([1]; isolate AB7): 21 mm | Inhibition zone ([1]; isolate AB8): 26 mm | Inhibition zone ([1]; isolate AB9): 23 mm | Inhibition zone ([1]; isolate AB10): NZ | Inhibition zone ([1]; isolate AB11): NZ | Inhibition zone ([1]; isolate AB12): NZ | Inhibition zone ([1]; isolate AB13): NZ | Inhibition zone ([1]; isolate AB14): 24 mm | Inhibition zone ([1]; isolate AB15): 19 mm | Inhibition zone ([1]; isolate AB16): NZ | Inhibition zone ([1]; isolate AB17): 21 mm | Inhibition zone ([1]; isolate AB18): 20 mm | Inhibition zone ([1]; isolate AB19): 17 mm | Inhibition zone ([1]; isolate AB20): 28 mm | Inhibition zone ([1]; isolate AB21): 19 mm | Inhibition zone ([1]; isolate AB22): 20 mm | Inhibition zone ([1]; isolate AB23): 23 mm | Inhibition zone ([1]; isolate AB24): 19 mm | Inhibition zone ([1]; isolate AB25): 25 mm | Inhibition zone ([1]; isolate AB26): NZ | Inhibition zone ([1]; isolate AB27): 8 mm | Inhibition zone ([1]; isolate AB28): 20 mm | Inhibition zone ([1]; isolate AB29): 19 mm | Inhibition zone ([1]; isolate AB30): 20 mm | Inhibition zone ([1]; isolate AB31): NZ | Inhibition zone ([1]; isolate AB32): 28 mm | Inhibition zone ([1]; isolate AB33): 24 mm

Gentamicin
Inhibition zone ([1]; isolate AB1): 24 mm | Inhibition zone ([1]; isolate AB2): 20 mm | Inhibition zone ([1]; isolate AB3): 24 mm | Inhibition zone ([1]; isolate AB4): 22 mm | Inhibition zone ([1]; isolate AB5): 15 mm | Inhibition zone ([1]; isolate AB6): 26 mm | Inhibition zone ([1]; isolate AB7): NZ | Inhibition zone ([1]; isolate AB8): NZ | Inhibition zone ([1]; isolate AB9): 21 mm | Inhibition zone ([1]; isolate AB10): NZ | Inhibition zone ([1]; isolate AB11): NZ | Inhibition zone ([1]; isolate AB12): 12 mm | Inhibition zone ([1]; isolate AB13): NZ | Inhibition zone ([1]; isolate AB14): NZ | Inhibition zone ([1]; isolate AB15): 20 mm | Inhibition zone ([1]; isolate AB16): 18 mm | Inhibition zone ([1]; isolate AB17): 24 mm | Inhibition zone ([1]; isolate AB18): 17 mm | Inhibition zone ([1]; isolate AB19): 20 mm | Inhibition zone ([1]; isolate AB20): NZ | Inhibition zone ([1]; isolate AB21): 17 mm | Inhibition zone ([1]; isolate AB22): NZ | Inhibition zone ([1]; isolate AB23): NZ | Inhibition zone ([1]; isolate AB24): 19 mm | Inhibition zone ([1]; isolate AB25): 19 mm | Inhibition zone ([1]; isolate AB26): NZ | Inhibition zone ([1]; isolate AB27): 8 mm | Inhibition zone ([1]; isolate AB28): 20 mm | Inhibition zone ([1]; isolate AB29): 20 mm | Inhibition zone ([1]; isolate AB30): 20 mm | Inhibition zone ([1]; isolate AB31): 8 mm | Inhibition zone ([1]; isolate AB32): NZ | Inhibition zone ([1]; isolate AB33): 20 mm

Gentamicin sulfate
MIC ([2]; A. baumannii ATCC BAA 747 (standard sensitive strain)): 1 µg/mL | MIC ([2]; isolate AB7): 32 µg/mL | MIC ([2]; isolate AB8): 64 µg/mL | MIC ([2]; isolate AB10): 32 µg/mL | MIC ([2]; isolate AB11): 32 µg/mL | MIC ([2]; isolate AB12): 32 µg/mL | MIC ([2]; isolate AB13): 32 µg/mL | MIC [3]: ≤2 µg/mL

From US11617726B2, “Method for preventing, treating, or ameliorating a microbial infection” (priority 2018, dated 2023)
